This is an account of results in patent US20260373093A1, “TIMESCALE-GUIDED MICROFLUIDIC SYNTHESIS OF POLYPHENOL-IRON III NETWORK NANOCAPSULES OF HYDROPHOBIC DRUGS” (Purdue Research Foundation, priority 2023, published 2026).

For one data set, the system named is Pa03C cells. The data set can be described thus: MTT cytotoxicity, Pa03C cells. In kind it is cell-based. The conditions noted are these: for cell viability: 1440 min. The procedure: Pa03C cells were seeded in 96-well plates at a density of 4000 cells per well and allowed to adhere for 24 hours. Cells were incubated with drug-free nanocapsules (pEGCGs), free paclitaxel, or EFN nanocapsules of paclitaxel at concentrations ranging from 0.001 to 10 µg/mL calculated by paclitaxel content at 37 °C and 5% CO2 for 24 hr. After the incubation, the cells were washed with PBS 3 times, and 100 μL fresh medium was added to each well. Then, cells were cultured for […] another 24 hours. After incubation, 100 μL fresh medium was changed to each well, and 10 μL MTT was added to each well, followed by a 4 h incubation for cleavage at 37 °C. Then 100 μL isopropanol with 0.04 N HCl was added to each well and mixed thoroughly with the medium by repeated pipetting. The result was read with a test wavelength of 570 nm and a reference wavelength of 630 nm using a Microplate Spectrophotometer. Experiments were performed in triplicate and presented as means±SD.

For data set [1] the following is noted: cited from earlier work.
The next data set relates to CAF19 cells. The data set can be described thus: MTT cytotoxicity, CAF19 cells (VPX). The format is cell-based. As to conditions: 24 hr. On the procedure: (§1) PANC-1 cells were seeded in 96-well plates at a density of 5000 cells per well and allowed to adhere for 24 hours. CAF19 cells were seeded in 96-well plates at a density of 1500 cells per well and allowed to adhere for 24 hours. Cells were incubated with drug-free nanocapsules (pTAs), free drug of VPX, or TFN nanocapsules of VPX at the concentrations ranging from 0.05 to 20 μM calculated by VPX content at 37 °C and 5% CO2 for 24 hr. After the incubation, the cells were washed with PBS 3 times, and 100 μL fresh medium was added to each well. Cells were cultured for another 24 hours. After incubation, 100 μL fresh medium was changed to each well, and 10 μL MTT was added to each well, followed by 4 hr incubation for cleavage at 37 °C. Then 100 μL isopropanol with 0.04 N HCl was added to each well and mixed thoroughly with the medium by repeated pipetting. The result was read with a test wavelength of 570 nm and a reference wavelength of 630 nm using a Microplate Spectrophotometer. Experiments were performed in triplicate and presented as means±SD.

The next data set deals with PANC-1 cells. The experiment in a line: MTT cytotoxicity, PANC-1 cells (VPX). The format is cell-based, human. The conditions noted are these: 24 hr. The procedure: as §1
A further data set relates to Pancl cells. The experiment in a line: MTT cytotoxicity, Panc1 cells (curcumin). In kind it is cell-based, human. As to conditions: dosages >40 μM. On the procedure: Panc 10.05 or Pancl cells were seeded in 96-well plates at a density of 5,000 cells per well and allowed to adhere overnight. Panc10.05 cells were incubated with drug-free nanocapsules (pTAs), free paclitaxel, or TFN nanocapsules of paclitaxel at the concentrations ranging from 0.001 to 10 μg mL^−1 calculated by paclitaxel content at 37 °C and 5% CO2 for 24 hr. Pancl cells were incubated with pTAs, free curcumin, or TFN nanocapsules of curcumin at the concentration of 5-160 μM calculated by curcumin content at 37 °C and 5% CO2 for 48 hr. After the incubation, the cells were washed with PBS three times, and 100 μL fresh medium was added to each well. Then cells were cultured for another 24 hours. After incubation, 100 μL fresh medium was added to each well, and 10 μL MTT was added to each well, followed by a 4 h incubation for cleavage at 37 °C. Then 100 μL isopropanol with 0.04 N HCl was added to each well and mixed thoroughly with the medium by repeated pipetting. The result was read with a test wavelength of 570 nm and a reference wavelength of 630 nm using a Microplate Spectrophotometer. Experiments were performed in triplicate and presented as means±SD.

Where “and” joins values, the source holds several entries; their conditions need not be identical. Identical values can stand only once. Like-named read-outs stand apart in the source and are kept apart here.

As for `O=C(O[C@@H]1Cc2c(O)cc(O)cc2O[C@@H]1c1cc(O)c(O)c(O)c1)c1cc(O)c(O)c(O)c1` [EGCG, epigallocatechin-3-gallate], in the data set with Pa03C cells (EGCG on its own (from EFN cytotoxicity test)), the anticancer activity result is recorded as “significant anticancer activity”.
For the compound `C=C1CC[C@H](O)C/C1=C/C=C1\CCC[C@]2(C)[C@@H]([C@H](C)CCCC(C)C)CC[C@@H]12` [VD3, vitamin D], in data set [1] (room temperature), the water solubility was less than 1 ng/mL.
In the case of `CCOC(=O)N[C@@H]1CC[C@@H]2[C@@H](C1)C[C@H]1C(=O)O[C@H](C)[C@H]1[C@H]2/C=C/c1ccc(-c2cccc(F)c2)cn1` [VPX, vorapaxar], the cell viability entry in the data set on CAF19 cells (VPX treatment up to 20 μM) and with PANC-1 cells (VPX treatment up to 20 μM) was “above 100%” in each case. Besides, the toxicity result in the data set on CAF19 cells (up to 20 μM (VPX content)) and in the data set with PANC-1 cells (up to 20 μM (VPX content)) was “no toxicity” each time. Further, the water solubility in data set [1] (VPX) was 1.4 μg/mL and ~ 3 μM.
Regarding `CC(=O)O[C@H]1C(=O)[C@@]2(C)[C@H]([C@H](OC(=O)c3ccccc3)[C@]3(O)C[C@H](OC(=O)[C@H](O)[C@@H](NC(=O)c4ccccc4)c4ccccc4)C(C)=C1C3(C)C)[C@]1(OC(C)=O)CO[C@@H]1C[C@@H]2O` [free PTX, paclitaxel], the cell viability with Pa03C cells (PTX dosages >0.1 g/mL) and in the data set with Pa03C cells (dosages of 1-10 μg/mL) was ~ 50% throughout. In data set [1] (water), the water solubility is greater than 1000 ng/mL.
Take `COc1cc(/C=C/C(=O)CC(=O)/C=C/c2ccc(O)c(OC)c2)ccc1O` [free curcumin, curcumin]: the “suppression of cell growth” value in the data set with Pancl cells is “significant suppression of Pancl growth”.
